Assay results taken from patent US20240141291A1, “FUNCTIONAL BRAIN REGION-SPECIFIC NEURAL SPHEROIDS AND METHODS OF USE” (THE UNITED STATES OF AMERICA, AS REPRESENTED BY THE …, priority 2021, published 2024).
“And” between values parts separate entries of the source, which are not always exact repeats. Identical values can stand only once. “Also recorded” adds a separate entry of the source.

What was measured:
Type in all cases: cell-based, human
VTA-like spheroids [1] = test: FLIPR calcium activity profiling, compound addition (Examples 1-2); details: FLIPR recordings 1-, 30-, 70-min after compound (t1, t30, t70)
Protocol: (§1) To examine neuronal activity changes as a response to compound treatment, calcium activity was assessed using a Fluorescent Imaging Plate Reader (FLIPR) Penta (Molecular Devices). FLIPR Calcium 6 Assay kits were purchased from Molecular Devices (PN: R8190). On day of activity profiling, 96-well or 384-well ULA round bottom (black sides, clear bottom) plates containing spheroids were removed from incubator. Fresh FLIPR Calcium 6 dye was prepared by diluting each vial in 10 ml of freshly prepared, phenol-free complete spheroid maturation media and vortexed for 2 minutes. Half of the media was removed from each well (45 μl from 384-well plate wells, 100 ul from 96-well plate wells) and replaced with equal amounts freshly prepared FLIPR Calcium 6 dye, followed by a 2-hour incubation in the dark in a 37 C, 5% CO2 incubator. After 2-hours, plates were removed and kept at room temperature for 10 minutes, then imaged and calcium activity read using the Molecular Devices FLIPR Penta High-Throughput Cellular Screening System. The FLIPR incubator stage was pre-warmed to 37° C. approximately 30 minutes prior to imaging. Standard filter sets were used for Cal6 imaging (excitation 470-495 and emission 515-575 nm). FLIPR recordings were obtained with the camera in normal mode, and settings included: gain was set to 2.5, exposure time to 0.03 seconds, and excitation intensity to 50%. Fluorescent image reads were taken every 0.6 seconds for a total of 1000 reads over a total run time of 10 minutes. Four recordings total were captured: baseline activity, 1-min after compound treatment, 30- and 70-min after compound treatment.
(§2) After baseline activity, cell plates were removed from the FLIPR and transferred to a 384-well pin tool instrument. Prior to compound addition, the pin tool was subjected to 4 wash cycles exposing the pins to water, methanol, and DMSO each time. Compounds, including either “QC compounds” (compounds with known mechanism of action, listed in results) or the mu opioid receptor selective-agonist DAMGO, were transferred from a compound source plate to the 384-well spheroid plate. Immediately after compound transfer, the cell plate was placed back in the FLIPR for the recording that was 1-min after compound transfer to begin. After this 10-min recording, another recording was captured 30-min after compounds were transferred. After the 30-min recording, the plate was again removed from the FLIPR and transferred to the pin tool instrument. During this phase of compound transfer, naloxone was transferred to wells that received DAMGO during the first compound transfer. Following this second compound transfer, the cell plate was placed back in the FLIPR and a final recording was obtained 30-min later, and 70-min after the initial compound transfer.
(§3) The FLIPR software ScreenWorks PeakPro 2.0 was used for the initial analysis of calcium activity using automated peak detection settings. With these settings, average peak statistics over each 10-min recording for each well were exported from PeakPro to Microsoft Excel. ScreenWorks Peak Pro 2.0 software was used to extract 17 activity features describing different aspects of calcium activity profiles. These included peak amplitude (PkA), peak amplitude standard deviation (PkASD), peak count (PkCt), peak rate (measured as peaks per minute, PpM), peak rate SD, peak spacing (PkSp), peak spacing SD (PkSpSD), peak spacing regularity, area under the curve (AUC), AUC SD, peak rise slope, peak rise slope SD, peak rise time (PkRt), peak ride time SD (PkRtSD), peak decay slope, peak decay slope SD, peak decay time (PkDt), and peak decay time SD (PkDtSD). To assess variability of these peak parameters, percent coefficients of variance (CV) were calculated by dividing the standard deviation/mean and multiplying by 100 for each designer spheroid type, and those with % CV's […] 20% were removed from future analysis. […]

PFC-like spheroids [2] = test: as above; details: FLIPR recordings 1-, 30-, 70-min after compound (t1, t30, t70)
Protocol: as §1, §2, §3

A53T VTA-like spheroids = test: Parkinson's Disease model, FLIPR calcium activity after compound treatment; details: 90-min after treatment; for reversal of A53T-induced deficits (peak count, peak width): Ropinirole 1, 3 and 10 μM
Protocol: (§4) Fluorescent Imaging plate Reader (FLIPR): The FLIPR Penta (Molecular Devices) was used to assess calcium fluorescence across the 384-well plate simultaneously and to observe changes after treatment with compounds. The evening before calcium activity was measured, plates were sealed with parafilm and centrifuged at 1485×g for 2-min to get spheroids to the bottom of the well in a centered position. On the day of recording, the plate used for recording was placed in the read plate position inside of the FLIPR following the 2-hour Cal6 incubation at 37° C. Standard filter sets were used for Cal6 imaging with excitation set at 470-495 and emission at 515-575 nm. Fluorescent image reads were taken every 0.6 seconds for all plates, with exposure time of 0.03 and 50% excitation intensity. Recordings from the initial seven plates consisted of 1000 reads and were 10-min recordings with 2.5 gain, while the final two plates consisted of 500 reads (5-min recordings) with a gain of 2. Baseline recordings were taken across all plates and, if applicable, more recordings were obtained 1-, 30-, 60-, and/or 90-min after compound treatment. In between recordings, plates were wrapped in foil and placed back in the incubator at 37° C.
(§5) 384 Pin Tool: A 384 well pin tool (Rexroth) was used to transfer compounds simultaneously to the spheroid plate. Prior to compound transfer, the pin tool went through four wash cycles where pins were rinsed with dimethyl sulfoxide (DMSO), followed by methanol, then deionized (DI) water, to ensure the pins were clean. Compound transfer via the 384 well pin tool occurred after the baseline recordings with the fluorescent imaging plate reader (FLIPR). Here, 60 nL of compound suspended in DMSO was transferred to 60 µL of media in each well, diluting the compounds by 1000-fold and giving a final DMSO concentration of 0.1%. Immediately after compound transfer, the spheroid plate was either placed back inside of the FLIPR for a recording 1-min after compound treatment or placed back in the incubator if post-treatment recording was >30-min after compound transfer.
Calcium Activity Analysis: Calcium oscillatory peak detection data from FLIPR recordings was obtained through ScreenWorks 5.1 (Molecular Devices). Initial peak detection analysis occurred within ScreenWorks 5.1 via the PeakPro 2.0 module. Here, all parameters were set to be the same for all wells per plate. The event polarity was always set to positive and search vector length always set to 11. The baseline, trigger level, which is automatically set to 10% above the baseline, and dynamic threshold, which is the threshold for peak detection were automatically identified by the PeakPro 2.0 module. Wells were manually checked to ensure these parameters were accurately identified prior to analysis. After analysis, data from 18 peak parameters (mean peak amplitude, peak amplitude standard deviation (SD), peak count, mean peak rate, peak rate SD, peak spacing, peaking spacing SD, mean number of EAD-like peaks per well, CTD @ 50% (peak width at 50% amplitude), CTD @ 90% (peak width at 90% amplitude), rise slope, rise slope SD, mean peak rise time, peak rise time SD, decay slope, decay slope SD, mean peak decay time, and peak decay time SD) was exported to a STATALL file that could be converted to a Microsoft Excel spreadsheet. There, percent coefficient of variance (% CV) was calculated within each plate to measure how variable each parameter exported was. […] All data was normalized to the average of DMSO-treated control wells within each plate. […] Bar plots with individual values are reported as mean±SEM.

PFC-like spheroids [3] = test: FLIPR calcium activity with Cal6 dye, control compounds / DAMGO / AD compounds (Example 3); details: for effect on peak count and peak spacing: 10 μM DAMGO, recording 30-min later, then naloxone
Protocol: (§6) Viruses and dyes: To assess calcium activity, the calcium dye, Cal6 (Molecular Devices), and genetically encoded calcium indicator, GCaMP6f (Addgene, cat #100836-AAV9) were used. Cal6 was used according to manufacturer's instructions and 10 mL of maintenance media was added to each vial. Two hours before activity was recorded, half of the spheroid media was exchanged for media with Cal6. The plates were covered in foil and placed in the incubator at 37° C. during the 2-hour (hr) incubation period. Since all viruses used were adeno-associated viruses (AAV), they were added to the media on day 7 to allow for 2-weeks expression prior to recording or testing. All viruses were added to the media at 2e5 multiplicity of infection (MOI). GCaMP6f infection occurred via an adeno-associated virus serotype 9 (AAV9) expressed under the CAG promoter for expression in both neurons and astrocytes. Designer receptors exclusively activated by designer drugs (DREADDs) viruses were used to stimulate and inhibit neuronal activity within spheroids. Both viruses were retrograde AAVs expressed under the human Synapsin promoter for expression in neurons and fused with an mCherry fluorophore. The DREADDs viruses either inserted the designer receptor hM4D(Gi), an inhibitory G-protein coupled receptor, or hM3D(Gq), a stimulatory G-protein coupled receptor. Clozapine-N-oxide (CNO, Tocris cat #4936) was suspended in dimethyl sulfoxide (DMSO) and used as the designer drug to activate the DREADDs viruses. CNO was tested at 1 and 10 μM, with data reported from the 1 μM concentration.
as §4
DAMGO was reconstituted in water at a 1 mM concentration and diluted in media to 20 µM such that spheroids would be treated with a final concentration of 10 μM after the half media exchange. Two aspects of OUD were modeled, chronic treatment along with opioid withdrawal. For spheroids subjected to chronic DAMGO treatment, 20 μM DAMGO in maintenance media was added via half media exchange beginning on day 10, with treatments occurring every other day for 10 days, giving a total of five treatments.
as §5, with “0.1%.” for “0.1%. Immediately after compound transfer, the spheroid plate was either placed back inside of the FLIPR for a recording 1-min after compound treatment or placed back in the incubator if post-treatment recording was >30-min after compound transfer.”

VTA-like spheroids [4] = test: FLIPR calcium activity with Cal6 dye, control compounds / DAMGO (Example 3); details: VTA-like spheroids, chronic DAMGO pre-treatment
Protocol: as §6, §4
DAMGO was reconstituted in water at a 1 mM concentration and diluted in media to 20 µM such that spheroids would be treated with a final concentration of 10 μM after the half media exchange. Two aspects of OUD were modeled, chronic treatment along with opioid withdrawal. […]
384 Pin Tool: A 384 well pin tool (Rexroth) was used to transfer compounds simultaneously to the spheroid plate. […] Compound transfer via the 384 well pin tool occurred after the baseline recordings with the fluorescent imaging plate reader (FLIPR). […]

Nc1ccncc1 [4-AP, 4-aminopyradine]
effect on calcium activity peak parameters compared to DMSO controls (VTA-like spheroids [1]): did not have any impact on PkCt, PkA, PpM, or PkSp at t1, t30, or t70; also recorded: significantly reduced PkDt at t1; also recorded: trend toward statistical significance for increasing the decay slope
effect on calcium activity peak parameters compared to DMSO controls (PFC-like spheroids [2]): significantly increased PkCt 1-min after exposure; also recorded: For the t30 recording, there was a significant increase in peaks per minute (PpM) and the decay slope; also recorded: Significant increases in PkCt and PpM as well as a reduction in PkSp resulted from 4-AP 70-min after exposure

NC(CCCP(=O)(O)O)C(=O)O (stereo not shown) [AP5]
effect on calcium activity peak parameters compared to DMSO controls (VTA-like spheroids [1]): did not impact calcium activity
effect on calcium activity peak parameters compared to DMSO controls (PFC-like spheroids [2]): did not impact calcium activity

NC12CC3CC(CC(C3)C1)C2 [Amantadine]
reversal of A53T-induced deficits (peak count, peak width) (A53T VTA-like spheroids): only Ropinirole was found to reverse this 90-min after treatment

CN1[C@@H]2CC[C@H]1C[C@@H](OC(c1ccccc1)c1ccccc1)C2 [Benztropine]
reversal of A53T-induced deficits (peak count, peak width) (A53T VTA-like spheroids): only Ropinirole was found to reverse this 90-min after treatment

N#Cc1cc2[nH]c(=O)c(=O)[nH]c2cc1[N+](=O)[O-] [CNQX]
functional response (calcium activity peak parameters) to control compound (PFC-like spheroids [3]; PFC-like spheroids, recordings 1-, 30-, 60-min after treatment): inhibited all activity in PFC-like spheroids for all three recordings (1-, 30-, and 60-min); also recorded: total inhibition that lasted throughout the 1-hr period
effect on calcium activity peak parameters compared to DMSO controls (VTA-like spheroids [1]): total inhibition of calcium activity during the t1 recording and 30-min after CNQX treatment, PkCt and PpM were significantly increased while PkA, PkSp, and PkDt were all still reduced and had no impact on calcium activity in VTA-like spheroids during the t70 recording
effect on calcium activity peak parameters compared to DMSO controls (PFC-like spheroids [2]): total inhibition of calcium activity that lasted throughout the entire recording period

N[C@@H](Cc1ccc(O)c(O)c1)C(=O)O [L-Dopa]
reversal of A53T-induced deficits (peak count, peak width) (A53T VTA-like spheroids): only Ropinirole was found to reverse this 90-min after treatment

C#CCN[C@@H]1CCc2ccccc21 [Rasagiline]
reversal of A53T-induced deficits (peak count, peak width) (A53T VTA-like spheroids): only Ropinirole was found to reverse this 90-min after treatment

CCN(C)C(=O)Oc1cccc([C@H](C)N(C)C)c1 [Rivastigmine]
effect on peak count and spacing in Wt PFC-like spheroids (PFC-like spheroids [3]; Wt PFC-like spheroids, 90 min after treatment): differences were observed in all groups except Rivastigmine

CCCN(CCC)CCc1cccc2c1CC(=O)N2 [Ropinirole]
effect on subpeak count (A53T VTA-like spheroids): 3 and 10 μM, but not 1 μM, Ropinirole significantly reduced subpeak count
reversal of A53T-induced deficits (peak count, peak width) (A53T VTA-like spheroids): significantly reduce peak count and increase peak width to the level that they were no longer significantly different from Wt DMSO-treated control spheroids; also recorded: restored deficits across all 3 peak measures

Cc1ccc(C(=O)c2cc(O)c(O)c([N+](=O)[O-])c2)cc1 [Tolcapone]
reversal of A53T-induced deficits (peak count, peak width) (A53T VTA-like spheroids): only Ropinirole was found to reverse this 90-min after treatment

OC(CCN1CCCCC1)(c1ccccc1)C1CCCCC1 (stereo not shown) [Trihexyphenidyl]
reversal of A53T-induced deficits (peak count, peak width) (A53T VTA-like spheroids): only Ropinirole was found to reverse this 90-min after treatment

C=CCN1CC[C@]23c4c5ccc(O)c4O[C@H]2C(=O)CC[C@@]3(O)[C@H]1C5 [naloxone]
effect on peak count and peak spacing (PFC-like spheroids [3]; PFC-like chronic DAMGO-treated spheroids): those treated with naloxone no longer showed significant differences in these peak parameters compared to DMSO-treated controls; also recorded: reverses deficits induced by chronic opioid treatment in PFC-like but not VTA-like spheroids
effect on peak count and peak spacing (PFC-like spheroids [3]; PFC-like control spheroids): reversed deficits in peak count and spacing in acute DAMGO-treated control spheroids
reversal of deficits induced by chronic opioid treatment (VTA-like spheroids [4]): reverses deficits induced by chronic opioid treatment in PFC-like but not VTA-like spheroids
